40 compounds from ChEMBL document CHEMBL1145577, “IRAK-4 inhibitors. Part III: a series of imidazo[1,2-a]pyridines” (Bioorg Med Chem Lett, 2008) can be followed below.

pIC50: −log10 of the molar value.

In series [1] the target is T1, Interleukin-1 receptor-associated kinase 4 (Homo sapiens, UniProt Q9NWZ3).
T1 sequence (Q9NWZ3 whole entry): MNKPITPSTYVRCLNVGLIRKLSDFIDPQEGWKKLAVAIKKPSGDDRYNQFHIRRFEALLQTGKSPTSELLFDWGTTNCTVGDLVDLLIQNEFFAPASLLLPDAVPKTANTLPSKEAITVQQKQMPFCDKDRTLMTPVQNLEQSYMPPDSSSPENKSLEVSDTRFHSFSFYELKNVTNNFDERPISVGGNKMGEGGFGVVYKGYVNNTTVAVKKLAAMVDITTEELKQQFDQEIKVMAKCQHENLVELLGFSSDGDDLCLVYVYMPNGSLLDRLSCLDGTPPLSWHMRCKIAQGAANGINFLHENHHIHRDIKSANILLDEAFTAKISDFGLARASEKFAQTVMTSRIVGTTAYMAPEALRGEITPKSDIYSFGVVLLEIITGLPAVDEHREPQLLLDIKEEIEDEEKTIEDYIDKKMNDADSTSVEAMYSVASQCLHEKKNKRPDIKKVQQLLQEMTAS
As to the kind of experiment: Inhibition of IRAK4.

Series [2] has as its target Interleukin-1 receptor-associated kinase 1 (Homo sapiens, UniProt P51617). As to the kind of experiment: Inhibition of IRAK1.
For another series, the system named is PBMC. As to the kind of experiment: Inhibition of LPS-induced TNFalpha release in human PBMC cells. In kind it is functional.
The nature of series [3]: Intrinsic clearance in human microsomes at 0.5 uM. It is filed as ADME, Microsome.
Another series concerns the target Cytochrome P450 3A4 (Homo sapiens, UniProt P08684). As to the kind of experiment: Inhibition of CYP3A4. In kind it is ADME. Also noted: concentration or dose not given beside the values.
Series [4] concerns the target T2, CYP2D6 (Homo sapiens, UniProt P10635). As to the kind of experiment: Inhibition of CYP2D6 at 10 uM. In kind it is ADME.
A short description of series [5]: Intrinsic clearance in rat microsomes at 0.5 uM. It is filed as ADME, Microsome.
In series [6] the target is T2, CYP2D6. As to the kind of experiment: Inhibition of CYP2D6 at 50 uM. In kind it is ADME.
For the next series, the target named is Cytochrome P450 2D6 (Homo sapiens, UniProt P10635). As to the kind of experiment: Inhibition of CYP2D6. It is filed as ADME.
Series [7] deals with T3, Interleukin-1 receptor-associated kinase 4 (Homo sapiens) (UniProt Q9NWZ3).
T3 sequence (whole entry): T1 sequence (Q9NWZ3 whole entry)
As to the kind of experiment: Inhibition of IRAK4 at 10 uM.

Chain of Interleukin-1 receptor-associated kinase 1 (P51617 whole entry): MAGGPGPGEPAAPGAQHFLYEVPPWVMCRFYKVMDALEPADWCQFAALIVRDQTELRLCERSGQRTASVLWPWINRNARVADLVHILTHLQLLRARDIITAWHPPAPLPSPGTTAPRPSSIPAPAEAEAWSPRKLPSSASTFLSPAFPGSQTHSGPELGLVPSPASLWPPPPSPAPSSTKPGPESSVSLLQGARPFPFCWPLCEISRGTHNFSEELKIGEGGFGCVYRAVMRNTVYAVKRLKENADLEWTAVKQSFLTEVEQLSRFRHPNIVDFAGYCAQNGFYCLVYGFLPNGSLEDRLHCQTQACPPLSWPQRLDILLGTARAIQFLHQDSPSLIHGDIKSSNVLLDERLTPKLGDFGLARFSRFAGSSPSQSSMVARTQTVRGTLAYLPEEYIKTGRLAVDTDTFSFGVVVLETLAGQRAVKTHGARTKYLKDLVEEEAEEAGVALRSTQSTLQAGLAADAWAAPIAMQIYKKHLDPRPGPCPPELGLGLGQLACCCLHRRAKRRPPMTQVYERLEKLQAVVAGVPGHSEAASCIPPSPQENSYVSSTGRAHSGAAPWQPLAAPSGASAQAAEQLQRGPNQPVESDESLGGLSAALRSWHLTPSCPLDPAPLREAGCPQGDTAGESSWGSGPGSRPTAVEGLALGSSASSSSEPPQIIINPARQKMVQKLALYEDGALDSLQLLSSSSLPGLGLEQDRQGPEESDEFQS
Chain of Cytochrome P450 2D6 (P10635 whole entry): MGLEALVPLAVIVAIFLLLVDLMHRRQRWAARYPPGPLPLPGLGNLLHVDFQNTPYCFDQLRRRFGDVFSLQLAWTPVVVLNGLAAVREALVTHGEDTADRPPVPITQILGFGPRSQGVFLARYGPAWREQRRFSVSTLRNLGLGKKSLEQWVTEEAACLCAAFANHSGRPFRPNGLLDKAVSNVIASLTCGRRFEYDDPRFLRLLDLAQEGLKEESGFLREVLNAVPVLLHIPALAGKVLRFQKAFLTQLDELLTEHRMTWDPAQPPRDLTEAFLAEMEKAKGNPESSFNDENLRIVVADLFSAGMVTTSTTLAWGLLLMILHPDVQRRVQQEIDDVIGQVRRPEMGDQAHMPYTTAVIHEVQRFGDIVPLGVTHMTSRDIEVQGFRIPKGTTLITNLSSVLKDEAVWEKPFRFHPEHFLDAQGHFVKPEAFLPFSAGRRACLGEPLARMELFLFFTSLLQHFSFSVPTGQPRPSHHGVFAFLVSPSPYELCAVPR
Chain of Cytochrome P450 3A4 (P08684 whole entry): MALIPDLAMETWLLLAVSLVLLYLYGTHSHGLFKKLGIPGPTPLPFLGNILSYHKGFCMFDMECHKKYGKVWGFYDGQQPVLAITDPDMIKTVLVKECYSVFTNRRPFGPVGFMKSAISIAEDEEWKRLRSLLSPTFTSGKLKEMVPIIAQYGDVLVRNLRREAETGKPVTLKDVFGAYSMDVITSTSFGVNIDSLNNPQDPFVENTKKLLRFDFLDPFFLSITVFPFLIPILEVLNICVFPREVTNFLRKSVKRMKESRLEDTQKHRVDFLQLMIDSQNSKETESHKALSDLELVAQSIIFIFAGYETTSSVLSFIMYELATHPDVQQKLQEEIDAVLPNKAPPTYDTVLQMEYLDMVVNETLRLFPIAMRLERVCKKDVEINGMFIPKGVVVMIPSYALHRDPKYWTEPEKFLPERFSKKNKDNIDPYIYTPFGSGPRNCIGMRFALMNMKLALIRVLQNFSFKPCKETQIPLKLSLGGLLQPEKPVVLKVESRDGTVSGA
T2 sequence (P10635 whole entry): as the sequence (P10635 whole entry) above

One may read the pIC50 as the IC50 on a negative log10 scale, so that one unit is a factor of ten. With `O=C(c1ccc2ncc(-c3cccc(NC4CCNCC4)n3)n2c1)N1CCOCC1`, the pIC50 in [1] is 6.58.
Consider `COc1cc2ncn(-c3cccc(NC4CCNCC4)n3)c2cc1OC`, for which the pIC50 in series [1] is 6.74.
Still for that read-out and setting: under `c1cc(NC2CCNCC2)nc(-c2cnc3ccc(-c4cc[nH]n4)cn23)c1` stands 8.70; under `COc1ccc2c(c1)ncn2-c1cccc(NC2CCNCC2)n1`, 6.68; under `c1cc(N[C@H]2CCCNC2)nc(-c2cnc3ccccn23)c1`, 7.72.
On the same count and under the same terms, then `COc1ccc2ncn(-c3cccc(NC4CCNCC4)n3)c2c1`, with 7.82.
A word on the microsomal CLint: it is a measure of how fast metabolising enzymes remove a compound, apart from limits set by blood flow. For orientation: Inhibition means the relative decrease from the control value, in per cent. For orientation: inhibition means the change of the read-out against control, counted positive when it falls. Consider `Clc1ccc2ncc(-c3cccc(NC4CNC4)n3)n2c1`, for which the values for the negative logarithm of the IC50 (pIC50) in series [1] and in [2] were 8.22 and 3.71, respectively. In addition, in the series with PBMC, the Activity is reported as 54 nM. Besides, the microsomal CLint at 0.5 µM in series [3] was 13 µL/min/mg. The same compound returned an Inhibition on Cytochrome P450 3A4 of 11%. The inhibition at 10 µM against CYP2D6 [4] came out at 21%.
Compound `COc1ccc2ncc(-c3cccc(NC4CNC4)n3)n2c1` gave a pIC50 in series [1] of 8.15.
The same measure, in the same setting: then `CN(C)CCCNc1cccc(-c2cnc3ccccn23)n1`, with 5.09; and `c1cc(NC2C[C@H]3CC[C@@H](C2)N3)nc(-c2cnc3ccccn23)c1` (stereo partly drawn), with 6.65; and `c1ccc(Nc2cccc(-c3cnc4ccccn34)n2)cc1`, with 5.94.
For the compound `COc1ccc2ncc(-c3cccc(NC4CCNCC4)n3)n2c1`, the values for the pIC50 in series [1] and in series [2] were 8.22 and 3.53, respectively. Besides, the Activity in the series on PBMC stood at 220 nM. Further, the microsomal CLint at 0.5 µM in series [3] is 19.5 µL/min/mg; in [5] it was 5.3 µL/min/mg. This compound showed an Inhibition on Cytochrome P450 3A4 of 31%. This compound showed an inhibition at 50 µM at CYP2D6 [6] of 41%.
Consider `Cc1ccc2c(c1)ncn2-c1cccc(NC2CCNCC2)n1`, for which, in series [1], the pIC50 is 5.96.
In series [1], `c1cc(NC2CCNCC2)nc(-c2cnc3ccc(-c4ccc[nH]4)cn23)c1` gave a pIC50 of 7.20.
On the same count and under the same terms, then `COc1ccc(-c2ccc3ncc(-c4cccc(NC5CCNCC5)n4)n3c2)cn1`, with 8.10.
On to `N#Cc1ccc2ncc(-c3cccc(NC4CCNCC4)n3)n2c1`, for which the results for the pIC50 in series [1] and in [2] were 8.40 and 4.02, respectively. The same compound returned an Activity in the series with PBMC of 200 nM. Also, the results for the microsomal CLint at 0.5 µM in series [3] and in series [5] were 8.3 µL/min/mg and 39.9 µL/min/mg, respectively. The Inhibition stood at 42% at Cytochrome P450 2D6 and 22% at Cytochrome P450 3A4.
With `CN1[C@@H]2CC[C@H]1CC(Nc1cccc(-c3cnc4ccccn34)n1)C2` (stereo partly drawn), the pIC50 in series [1] is 6.04.
The same measure, in the same setting: then `Clc1ccc2c(c1)ncn2-c1cccc(NC2CCNCC2)n1`, with 6.95; and `Cc1ccc2ncn(-c3cccc(NC4CCNCC4)n3)c2c1`, with 8.00; and `Clc1cc2ncn(-c3cccc(NC4CCNCC4)n3)c2cc1Cl`, with 6.78.
In series [1], `NC1CCN(c2cccc(-c3cnc4ccccn34)n2)CC1` showed a pIC50 of 5.73.
Regarding `NC1CCCN(c2cccc(-c3cnc4ccccn34)n2)C1` (racemic), in series [1], the pIC50 is 6.27.
For the compound `Clc1ccc2ncc(-c3cccc(NC4CCNC4)n3)n2c1` (racemic), the pIC50 in series [1] is 9.00; in series [2] it was 4.64. Moreover, in the series with PBMC, the Activity turned out to be 16 nM. Moreover, the microsomal CLint at 0.5 µM in series [3] was determined as 19.2 µL/min/mg; in series [5], 49.3 µL/min/mg. Moreover, the Inhibition at Cytochrome P450 2D6 is on record as 15%; at Cytochrome P450 3A4, 12%.
In [1], `N#Cc1ccc2ncc(-c3cccc(N[C@@H]4CCCNC4)n3)n2c1` had a pIC50 of 7.02.
In turn, `c1cc(-c2cnc3ccccn23)nc(N2CCCNCC2)c1` had a negative-log IC50 (pIC50) in series [1] of 6.31.
`NC(=O)c1ccc2ncc(-c3cccc(NC4CCNCC4)n3)n2c1`: the pIC50 in series [1] was 8.30.
Same read-out and setting: then `c1cc(-c2cnc3ccccn23)nc(N2C[C@H]3C[C@@H]2CN3)c1`, with 6.90; and `c1cc(NCC2CCCN2)nc(-c2cnc3ccccn23)c1` (racemic), with 6.50; and `c1cc(NC2CCNC2)nc(-c2cnc3ccccn23)c1` (racemic), with 6.26.
On to `Cn1cnc(CNc2cccc(-c3cnc4ccccn34)n2)c1`, for which, in [1], the pIC50 is 6.30.
The same measure, in the same setting: then `CN(C)C(=O)c1ccc2ncc(-c3cccc(NC4CCNCC4)n3)n2c1`, with 7.31; and `c1cc(NCC2CCNCC2)nc(-c2cnc3ccccn23)c1`, with 5.52; and `c1cc(NC2CNC2)nc(-c2cnc3ccccn23)c1`, with 7.41.
Same read-out and setting: under `N#Cc1ccccc1Nc1cccc(-c2cnc3ccccn23)n1` stands 6.36; under `Clc1ccc2ncn(-c3cccc(NC4CCNCC4)n3)c2c1`, 8.52.
`NCCCNc1cccc(-c2cnc3ccccn23)n1`: the pIC50 in [1] was 5.89.
As to `Clc1ccc2ncc(-c3cccc(NC4CCCNC4)n3)n2c1` (racemic), the pIC50 in series [2] is 3.76. Further, the Activity in the series on PBMC amounted to 65 nM. Also, the results for the microsomal CLint at 0.5 µM in series [3] and in series [5] were 29.5 µL/min/mg and 78.1 µL/min/mg, respectively. Also, the Inhibition stood at 1.8% at Cytochrome P450 2D6 and 8.6% on Cytochrome P450 3A4.
On to `Cn1nccc1Nc1cccc(-c2cnc3ccccn23)n1`, for which, in [1], the negative-log IC50 (pIC50) is 5.95.
In turn, `Cn1cc(-c2ccc3ncc(-c4cccc(NC5CCNCC5)n4)n3c2)cn1` had a pIC50 in [1] of 8.15.
In series [7], `N#Cc1ccc(Nc2cccc(-c3cnc4ccccn34)n2)cc1` gave an inhibition of 12%.
